Experimental data reported in patent US20180045675A1, “SINGLE-CELL INTRACELLULAR NANO-PH PROBES” (The Regents of the University of California, priority 2015, published 2018).

System: MDA-MB-231 cells
Experiment: real-time intracellular pH measurement with nano-pH probe during chloride channel blocker exposure
Type: cell-based, human
Settings: single MDA-MB-231 cells
Source text: Sensing setup. To carry out analytical characterization experiments of chitosan-modified nanopipette sensors, a two-electrode setup connected to a potentiostat (1030C, CH Instruments Inc.) was used for sensing. A 125 μm platinum wire (Goodfellow Corporation) placed into nanopipettes filled with electrolyte served as the working electrode while a pseudo Ag/AgCl electrode placed in bulk solution (PBS or cell media) served as the reference electrode. Linear sweep voltammetry was utilized for all in vitro measurements with a scan rate of 0.1 V/sec.
Intracellular measurements were performed by combining the potentiostat and scanning ion conductance microscope (SICM) with a low-noise mechanical switch. The SICM setup consisted of an Axopatch 200B amplifier (Molecular Devices) for current feedback measurements, a MP-285 motorized micromanipulator (Sutter Instrument) for coarse positioning of the nano-pH probe, a piezo stage (NanoCube, Physik Instrumente) for fine positioning and insertion of the nano-pH probe sensors, and a programmable interface for hardware control of the setup. This system is run by custom software written in LabVIEW (National Instruments). All experiments with cells were conducted on an inverted fluorescence microscope (Olympus IX 70) equipped with an eyepiece camera (Dino-Eye, Big C).
Cell culture. […]
Chitosan-modified nanopipettes were inserted to individual cells using a customized scanning ion conductance microscope which detects current feedback for positioning the nanopipettes. […] After the insertion of the nano-pH probe into a cell, linear sweep voltammograms were recorded and the current-responses at a bias potential of 0.6 V were used to calculate the intracellular pH levels of single cells.
The present nano-pH probe can be used to monitor intracellular pH changes during drug therapy. […] Conventionally, the change in pH has been measured indirectly by introduction of fluorescent dye (BCECF-AM)^47,48. […] The measured pH levels stabilized by 4 min post NPPB introduction. […]

## O=C(O)c1cc([N+](=O)[O-])ccc1NCCCc1ccccc1 [NPPB, 5-nitro-2-(3-phenylpropylamino)-benzoate]
100 μM NPPB
  time by which measured pH levels stabilized post NPPB introduction: ≤ 4 min
  time within which intracellular pH level dropped significantly after introduction of NPPB: ≤ 2 min
100 μM NPPB in cell media, readings every 21 sec for 7 min, baseline around 7
  lowest intracellular pH level after introduction of NPPB: 2.5
